Measured values published in patent US20210094933A1, “RAPAFUCIN DERIVATIVE COMPOUNDS AND METHODS OF USE THEREOF” (The Johns Hopkins University, priority 2019, published 2021).
In brackets after ≈: the same amount, converted by molar mass. Where two headings read alike, the source gives them in different places.

Assays:
A549 = experiment: Cell proliferation assay (Prolif.), IC50 relative to DMSO control; format: cell-based; conditions: A549 cells, IC50 class relative to DMSO control
In short: (§1)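 Cells grown in complete growth media; proliferation IC50 scored relative to DMSO control as Low (>600 nM), Medium (300–600 nM) or High (<300 nM). Single-concentration response relative to DMSO scored Low (>0.6), Medium (0.6–0.3) or High (<0.3).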

[1] = Cell proliferation assay, single concentration, response relative to DMSO; cell line indicated in each table; format: cell-based; conditions: A549 cells
In short: as §1

293T = experiment: Nucleoside uptake assay (3H-Thymidine), IC50 relative to DMSO control; format: cell-based; conditions: 293T cells; Table 17
Method: Nucleoside Uptake Assay (uptake). Nuceloside uptake assays were performed with using 3H-Thymidine as described in Guo et al. (2018) Nat. Chem, 11:254-63. Specific cell lines are indicated in each assay and cultured in complete growth media. Activity is scored according to the IC50 values relative to DMSO control. “Low” indicates an IC50 greater than 600 nM, “Medium” indicates an IC50 between 300 nM and 600 nM “High” indicates an IC50 less than 300 nM. “Rel.Uptake” refers to uptake activity characterization relative to a single concentration assay. “Low” indicates a response greater than 0.6 times the activity relative to DMSO, “Medium” indicates a response between 0.6 and 0.3 times the activity relative to DMSO, “High” indicates a response less than 0.3 times the activity relative to DMSO.

[2] = Aqueous solubility in PBS solution; format: physicochemical; conditions: aqueous buffer
Method: Compound 1593 is synthesized according to Scheme 42. The aqueous solubility of compound 1593 and its counterpart structure without carboxylic acid substitutent, compound 1594, is shown in Table 18. Without the carboxylic acid substitutent, compound 1594 merely has a solubility of about 0.1 mg/mL in PBS solution.

Sprague Dawley Rats = experiment: Rat Renal Ischemia-Reperfusion model; format: in vivo; conditions: compound given 30 min prior to right nephrectomy and left renal clamping, 24 hours of reperfusion
Method: Briefly, Sprague Dawley Rats were treated test compound 30 min prior to a right nephrectomy and with underwent clamping of the left renal clamping for 15 mins. After 24 hours of reperfusion, blood was collected to measure biomarkers for kidney damage and the kidney was removed for histology. […] SHAM indicates an animal group with right nephrectomy without ischemic injury. VE indicates vehicle. DPA indicates dipyridamole administered in a dosage of 10 mg/kg. Compound 1593 was administered at a high dosage (12 mg/kg) or a low dosage (4 mg/kg). Compound 1594 was administered at 4 mg/kg.

[3] = Nucleoside uptake assay, single concentration (Rel.Uptake), response relative to DMSO; cell line indicated in each table; format: cell-based; conditions: 293 T cells, nucleoside uptake at single concentration
[4] = read-out: solubility in PBS solution

CCCC[C@H]1C(=O)N[C@@H](Cc2ccc3ccccc3c2)C(=O)N(C)[C@@H](COC(C)(C)C)C(=O)NCC(=O)N(C)CCC=CC(=O)OCC(C)(C)C(=O)C(=O)N2CCCC[C@H]2C(=O)O[C@H](CCc2cc(F)c(OC)c(OC)c2)c2cccc(c2)OCC(=O)N1C [Compound 568]
Prolif, A549 (A549): medium | Rel. Prolif., A549 [1]: medium

CCCC[C@H]1C(=O)N[C@@H](Cc2ccc3ccccc3c2)C(=O)N(C)[C@@H](COC(C)(C)C)C(=O)NCC(=O)N(C)CCC=CC(=O)OCC(C)(C)C(=O)C(=O)N2CCCC[C@H]2C(=O)O[C@H](CCc2cc(OC)c(OC)cc2F)c2cccc(c2)OCC(=O)N1C [Compound 569]
Prolif, A549 (A549): medium | Rel. Prolif., A549 [1]: medium

CCCC[C@H]1C(=O)N[C@@H](Cc2ccc3ccccc3c2)C(=O)N(C)[C@@H](COC(C)(C)C)C(=O)NCC(=O)N(C)CCC=CC(=O)OCC(C)(C)C(=O)C(=O)N2CCCC[C@H]2C(=O)O[C@H](CCc2ccc(OC)c(OC)c2F)c2cccc(c2)OCC(=O)N1C [Compound 570]
Prolif, A549 (A549): medium | Rel. Prolif., A549 [1]: medium

CCCC[C@H]1C(=O)N[C@@H](Cc2ccc3ccccc3c2)C(=O)N(C)[C@@H](COC(C)(C)C)C(=O)NCC(=O)N(C)CCC=CC(=O)OCC(C)(C)C(=O)C(=O)N2CCN(C(=O)OCC3c4ccccc4-c4ccccc43)C[C@H]2C(=O)O[C@H](CCc2ccc(OC)c(OC)c2)c2cccc(c2)OCC(=O)N1C [Compound 571]
Prolif, A549 (A549): low | Rel. Prolif., A549 [1]: low

CCCC[C@H]1C(=O)N[C@@H](Cc2ccc3ccccc3c2)C(=O)N(C)[C@@H](COC(C)(C)C)C(=O)NCC(=O)N(C)CCC=CC(=O)OCC(C)(C)C(=O)C(=O)N2CCN(C)C[C@H]2C(=O)O[C@H](CCc2ccc(OC)c(OC)c2)c2cccc(c2)OCC(=O)N1C [Compound 572]
Prolif, A549 (A549): medium | Rel. Prolif., A549 [1]: medium

CCCC[C@H]1C(=O)N[C@@H](Cc2ccc3ccccc3c2)C(=O)N(C)[C@@H](COC(C)(C)C)C(=O)NCC(=O)N(C)CCC=CC(=O)OCC(C)(C)C(=O)C(=O)N2CCCC[C@H]2C(=O)O[C@H](CCc2ccc(OC)c(OC)c2)c2cc(ccc2F)OCC(=O)N1C [Compound 573]
Prolif, A549 (A549): low | Rel. Prolif., A549 [1]: low

CCCC[C@H]1C(=O)N[C@@H](Cc2ccc3ccccc3c2)C(=O)N(C)[C@@H](COC(C)(C)C)C(=O)NCC(=O)N(C)CCC=CC(=O)OCC(C)(C)C(=O)C(=O)N2CCCC[C@H]2C(=O)O[C@H](CCc2ccc(OC)c(OC)c2)c2cc(F)cc(c2)OCC(=O)N1C [Compound 574]
Prolif, A549 (A549): low | Rel. Prolif., A549 [1]: low

CCCC[C@H]1C(=O)N[C@@H](Cc2ccc3ccccc3c2)C(=O)N(C)[C@@H](COC(C)(C)C)C(=O)NCC(=O)N(C)CCC=CC(=O)OCC(C)(C)C(=O)C(=O)N2CCCC[C@H]2C(=O)O[C@H](CCc2ccc(OC)c(OC)c2)c2ccc(F)c(c2)OCC(=O)N1C [Compound 576]
Prolif, A549 (A549): medium | Rel. Prolif., A549 [1]: medium

COc1ccc(CC[C@H]2OC(=O)[C@@H]3CCCCN3C(=O)C(=O)C(C)(C)COC(=O)/C=C/CCN(C)C(=O)[C@H](CC(C)C)N(C)C(=O)[C@H]3CCCN3C(=O)[C@H](Cc3ccc(OCC(=O)O)cc3)NC(=O)[C@H](c3ccccc3)NC(=O)CCC(=O)Nc3cccc2c3)cc1OC [Compound 1593]
IC50 (293T): < 300 nM | solubility ([2]; PBS, read-out: Solubility): 3500 µg/mL (≈ 2700 µM) | solubility [2, 4]: ~3500 µg/mL (≈ 2700 µM) | efficacy in Rat Renal Ischemia-Reperfusion model (Sprague Dawley Rats): efficacious | Rel. Uptake, 293 T [3]: High (“High” indicates a response less than 0.3 times the activity relative to DMSO)

COc1ccc(CC[C@H]2OC(=O)[C@@H]3CCCCN3C(=O)C(=O)C(C)(C)COC(=O)/C=C/CCN(C)C(=O)[C@H](CC(C)C)N(C)C(=O)[C@H]3CCCN3C(=O)[C@H](Cc3ccccc3)NC(=O)[C@H](c3ccccc3)NC(=O)CCC(=O)Nc3cccc2c3)cc1OC [Compound 1594]
solubility ([2]; PBS, read-out: Solubility): > 100 µg/mL | solubility [2, 4]: ~100 µg/mL (≈ 81.7 µM) | efficacy in Rat Renal Ischemia-Reperfusion model (Sprague Dawley Rats): efficacious | Rel. Uptake, 293 T [3]: Low (“Low” indicates a response greater than 0.6 times the activity relative to DMSO)
